Test: gradient 5% acetonitrile 3 min, to 50% in 2 min, to 85% in 15 min, held 3 min, 100 µL/min
Details: column: Zorbax Extend-C18 2.1 x 50 mm; eluents: water / acetonitrile, 0.1% formic acid
Procedure, shortened: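 The mobile phases were water and acetonitrile, each with 0.1% formic acid, pumped at 100 μL/min through a Zorbax Extend-C18 column (2.1 × 50 mm, 1.8 μm). Pure standards were injected as mixtures of ~100 molecules and detected by a quadrupole time-of-flight mass spectrometer in positive and negative ionization mode. Retention time came from computationally picked adduct peaks, each inspected by hand.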

| SMILES | RP-LC retention time [s] |
| --- | --- |
| COc1ccc(CC(=O)N2CCCC2c2nc(-c3ccc(OC)c(OC)c3)no2)cc1Cl (stereo not drawn) | 911 |
| COc1ccc(OC)c(NC(=O)CN2CC=C(c3cnn(C)c3)CC2)c1 | 597 |
| CCCn1cnc2cc(CNC(=O)c3ccc(C(C)C)cc3)ccc21 | 690 |
| Clc1ccc(Nc2c(-c3cccc(Cl)c3)nc3ccc(Cl)cn23)cc1 | 1140 |
| Cc1cc(-c2cc(S(=O)(=O)NCC(C)c3ccccc3)c(C)s2)n[nH]1 (stereo not drawn) | 890 |
| COc1ccc(-c2c(NC(=O)c3ccco3)oc3c(C)cccc3c2=O)cc1OC | 747 |
| CCc1nnc(-c2ccc(NS(=O)(=O)c3cccc(OC)c3)cc2)o1 | 801 |
| CCOc1ccc(C2Cn3nnc(-c4nc(-c5cccc(F)c5)no4)c3CO2)cc1 (stereo not drawn) | 1220 |
| COc1cccc(-c2noc(-c3nn(-c4ccc(Cl)cc4)ccc3=O)n2)c1OC | 896 |
| Cc1cc(OCC(=O)NCCN(C)C)cc(C)c1Cl | 629 |
| O=C(Cc1ccc(Br)cc1)N1CCN(c2cc(-c3ccccc3)[nH]n2)CC1 | 873 |
| CCn1cc(S(=O)(=O)CC(=O)Nc2ccc3c(c2)OCO3)c2ccccc21 | 754 |
| Cc1ccc(NC(=O)CN2C(=O)CCS(=O)(=O)c3ccccc32)cc1 | 761 |
| COC(=O)c1ccccc1S(=O)(=O)Nc1cccn2c(C3CCC3)nnc12 | 772 |
| CC(NC(=O)c1cccc(N(C)C)c1)C(=O)Nc1nc2ccccc2[nH]1 (stereo not drawn) | 603 |
| Cn1cc2c3c(cccc31)CN(C(=O)c1ccccc1Cl)CC2 | 975 |
| CCCn1cc(CCNS(=O)(=O)c2ccc(F)c(C)c2)c2cccnc21 | 893 |
| COc1cccc(S(=O)(=O)N2CCc3c(c(CN(C(C)=O)c4ccccc4)nn3C)C2)c1 | 793 |
| Cc1ccc(-c2nnc(SCc3noc(CCC(=O)Nc4cc(C)on4)n3)o2)cc1 | 846 |
| COc1ccccc1NC(=O)CN1C(=O)C(c2ccc(Cl)cc2)=NC1(C)C | 922 |
| COc1nccnc1N1CCC(NS(=O)(=O)c2ccc(C)cc2)C1 (stereo not drawn) | 759 |
| CCSc1ccc(Cc2nnc(NC(=O)c3ccc(S(=O)(=O)N(C)C)cc3)o2)cc1 | 819 |
| COc1ccc(OC)c(S(=O)(=O)NCCc2ncc(C)n2C(C)C)c1 | 540 |
| COC(=O)c1cc(OCC(=O)NCc2ccc3c(c2)OCO3)c2cc(F)ccc2n1 | 785 |

| SMILES | RP-LC retention time [s] |
| --- | --- |
| CSc1ccc(-c2nc3cnccn3c2Nc2ccc(C(=O)NC(C)C)cc2)cc1 | 745 |
| O=C1CCCCC(Cc2ccccc2)(C(=O)NCCc2c[nH]c3ccccc23)N1 (stereo not drawn) | 791 |
| CCN(C(=O)Cn1c(C(C)NC(=O)c2ccco2)nc2ccccc21)c1ccccc1 (stereo not drawn) | 704 |
| CCOC(=O)c1nc(N(C)c2cc(C)ccc2C)c2ccccc2n1 | 1010 |
| CCOC(=O)c1nc(NCCN2CCCc3ccccc32)c2ccccc2n1 | 729 |
| O=C(NCCc1ccc(Cl)cc1)c1nc(Cn2c(=O)oc3ccccc32)no1 | 969 |
| CCOc1ccccc1-c1noc(CN2C(=O)COc3cc(C)ccc32)n1 | 1050 |
| CCOC(=O)c1noc2ncnc(NCCCN3CCN(c4cc(C)ccc4C)CC3)c12 | 738 |
| O=C(CNC(=O)c1ccc(F)cc1)Nc1nc2ccccc2[nH]1 | 608 |
| O=C(NC1CCN(C(=O)c2cn(-c3ccc(Cl)cc3)nn2)CC1)c1cccs1 | 628 |
| CC(NC(=O)c1nnc(-c2ccc(S(=O)(=O)N(C)C)cc2)o1)c1ccccc1 (stereo not drawn) | 840 |
| CCCS(=O)(=O)N1CCC(c2noc(-c3ccncc3)n2)C1 (stereo not drawn) | 751 |
| Cc1ccc(-c2cn3ccn(-c4ccc(F)c(Cl)c4)c(=O)c3n2)cc1 | 927 |
| COc1cc(NC(=O)N2CCCC2c2nc(-c3ccccc3OC)no2)cc(OC)c1 (stereo not drawn) | 849 |
| COc1ccc2c(c1)-c1nc(NC(=O)c3ccc(OC)c(Br)c3)sc1CC2 | 1220 |
| COc1ccc(C(=O)N2CCC3(CC2)NCc2ccccc2-n2ccnc23)cc1OC | 594 |
| Cc1sc(-n2c(C)c3c(C)nnc(C)c3c2C)nc1-c1ccc(Br)cc1 | 782 |
| CSc1ccc(CNC(=O)CCc2c(-c3ccc(F)cc3)nc3ccccn23)cc1 | 692 |
| O=C(O)CNC(=O)C1CCN(S(=O)(=O)c2ccc(F)cc2)CC1 | 652 |
| CCS(=O)(=O)N1CC(=O)N(c2ccc(F)cc2C)C(C)(C(=O)NCc2ccccc2)C1 (stereo not drawn) | 818 |
| CC(C)Cc1nnc(C(=O)Nc2cccc(C(=O)NCCc3c[nH]c4ccccc34)c2)s1 | 955 |
| O=C(Nc1cnc(-c2ccc(Cl)cc2)nc1)c1ccc(Br)o1 | 1120 |
| COc1ccc(Cl)cc1NC(=O)CSc1nc2nc(C)cc(C)n2n1 | 856 |
| COc1ccc(-n2nc3c(N4CCCC(C(=O)NCCc5cccs5)C4)nnc(C)c3c2C)cc1 (stereo not drawn) | 722 |

Further lines, results first:

| RP-LC retention time [s] | SMILES |
| --- | --- |
| 746 | O=C1CN(S(=O)(=O)c2cccnc2)C2(CCCC2)CN1CC1CC1 |
| 881 | COc1ccc(NC(=O)Nc2cccc(-c3nccnc3N3CCCC3)c2)c(OC)c1 |
| 760 | Cc1cccc(NC(=O)C2CCN(S(=O)(=O)c3cc(C(=O)N4CCOCC4)cs3)CC2)c1C |
| 877 | Cc1ccc(Cl)cc1N1CCN(C(=O)c2ccc(Cn3cncn3)cc2)CC1 |
| 633 | CC(C)N1C(=O)C2(CCCCC2)C1C(=O)N1CCOCC1 (stereo not drawn) |
| 738 | CNC(=O)N1CCc2c(c(-c3nc(-c4cccc(F)c4)no3)nn2C)C1 |
| 789 | Cc1ccc(NC(=O)CSc2nc(N3CCCCC3)nc3ccccc23)cc1F |
| 1350 | CCc1ccc(-c2cc(C(F)(F)F)on2)cc1S(=O)(=O)N1CCC(C)CC1 |
| 676 | Cc1cc(C)c(S(=O)(=O)Nc2ccc(CC(=O)N3CCC(O)CC3)cc2)c(C)c1 |
| 902 | CC(NC(=O)CN1C(=O)C2CCCCN2c2ccc(S(=O)(=O)N(C)C)cc21)c1ccccc1 (stereo not drawn) |
| 831 | COc1ccccc1-c1noc(C2CCCN2C(=O)C2CCC2)n1 (stereo not drawn) |
| 866 | CC(C)n1c(N2CCCN(C(=O)c3ccc(Br)o3)CC2)cc(=O)n(C(C)C)c1=O |
| 811 | O=c1n(Cc2cccc(Br)c2)nc2c(S(=O)(=O)N3CCOCC3)cccn12 |
| 794 | CCC(=O)N(C)CCc1noc(-c2ccc(C(=O)NC3CCCCCC3)cc2)n1 |
| 849 | CCn1nccc1C(=O)N1CCCC1c1cccc(C)c1 (stereo not drawn) |
| 816 | Cc1nc(-c2ccc(C(=O)N3CCC(C(=O)N4CCc5ccccc54)CC3)cc2)no1 |
| 778 | COc1cccc(CNC(=O)Cn2c(=O)c3c(C(=O)N4CCCCC4)cc(C)nc3n(C)c2=O)c1 |
| 606 | CCC(=O)NCc1nc2c(n1CC)CN(C(=O)c1ccc(Br)cc1)CC2 |
| 878 | CC(C)NC(=O)c1ccc(OCC2CCN(C(=O)c3ccc(Br)o3)CC2)cc1 |
| 750 | CCN1C(=O)C2(CCN(C(=O)c3cc(C)n(C)n3)CC2)c2ccccc21 |

| RP-LC retention time [s] | SMILES |
| --- | --- |
| 596 | NC(=O)c1nsc2c(=O)n(CC(=O)NC3CCCC3)cnc12 |
| 989 | CC(C)OCCCNC(=O)c1cc2c(n(-c3ccc(C(C)C)cc3)c1=O)CCCC2=O |
| 590 | O=C(CN1CCOCC1)N1CCCCC1c1nc(C2CC2)no1 (stereo not drawn) |
| 747 | CCCC(=O)NC1(c2nc(-c3ccncc3)no2)CCCCC1 |
| 981 | COC(=O)c1ccc(NC(=O)N2CCC(CCOc3ccc(F)cc3)C2)cc1 (stereo not drawn) |
| 573 | CN1CCC([C@@H]2CN(S(=O)(=O)c3ccc(Cl)s3)C[C@H]2C(N)=O)CC1 |
| 917 | Cc1ccc(N2C(=O)CN(S(=O)(=O)c3ccccc3)CC2(C)C(=O)NC2CCCC2)cc1 (stereo not drawn) |
| 885 | O=C(CN1CCN(Cc2cccc(Cl)c2)C1=O)N1CCN(c2ccccc2)CC1 |
| 784 | C[C@H]1CN(C(=O)NC2CCCCC2)C[C@@H]1c1nc(-c2cccnc2)no1 |
| 834 | CCc1ccc(NC(=O)C2CCN(S(=O)(=O)c3ccc4c(c3)CCCC(=O)N4)CC2)cc1 |
| 752 | Cc1cccc(CNC2=NCCNC23CCN(S(=O)(=O)c2ccccc2C)CC3)c1 |
| 830 | Cc1cccc(NC(=O)C2CCN(S(=O)(=O)c3ccc4c(c3)sc(=O)n4C)CC2)c1C |
| 1030 | O=C(Cn1cc(-c2nc(-c3ccc(Cl)cc3)no2)ccc1=O)NC1CCCCC1 |
| 979 | CCCN(Cc1cccs1)C(=O)C1CCc2nc(N3CCC(C)CC3)ncc2C1 (stereo not drawn) |
| 1130 | Cc1ccc2c(c1)N(S(C)(=O)=O)CCC(C(=O)Nc1ccc(C(C)C)cc1)O2 (stereo not drawn) |
| 667 | CC(=O)NCc1csc(C2CCCN(C(=O)c3cc(F)ccc3F)C2)n1 (stereo not drawn) |
| 900 | CCn1c(=O)c(N2CCN(C(=O)c3cccs3)CC2)nc2cccnc21 |
| 876 | Cc1ccc2c(c1)N(Cc1ccccc1)N=C(C(=O)N1CCCC1)S2(=O)=O |
| 682 | CC(=O)Nc1ccc(-n2cnc(C(=O)N3CCN(c4ccc(C)cc4)CC3)c2)nc1 |
| 761 | O=C(CN1C(=O)C2CCCCN2c2ccc(S(=O)(=O)N3CCCC3)cc21)NC1CCCC1 (stereo not drawn) |

Reference: the METLIN SMRT retention time set (Domingo-Almenara et al. 2019)
